Test results as given in patent US11420922B2, “Hydroxylated tropolone inhibitors of nucleotidyl transferases in herpesvirus and Hepatitis B and uses therefor” (Saint Louis University, priority 2015, dated 2022).
Entries after “also recorded” stand apart in the source; their conditions may differ. Like-named read-outs stand apart in the source and are kept apart here.

How the values were obtained:
HSV-1 [1] = assay: Anti-HSV-1 replication assay in Vero cells, titers by plaque assay; format: cell-based, herpes simplex virus 1; conditions: for log reduction at 5 µM: read-out: HSV-1 Log suppression 5 μM; for log reduction at 50 µM: read-out: HSV-1 Log suppression 50 μM
Experimental: Vero cells were maintained in Dulbecco's modified Eagle's medium (DMEM) containing 3% newborn calf serum, 3% bovine growth serum, 2 mM L-glutamine and 100 IU/mL penicillin and 0.1 mg/mL streptomycin (P/S). HSV-1 #6 and HSV-2 #1 are de-identified clinical isolates from the Saint Louis University Hospital. Stocks were prepared after a single passage in cell culture and were titered by standard plaque assay (Knipe and Spang, 1982). Wild-type HSV-2 used in FIG. 3 was laboratory strain 333. […] Virus stocks were grown and titered on Vero cells (Morrison and Knipe, 1996).
(§1) Compounds to be screened were diluted in PBS supplemented to contain 2% newborn calf serum and 1% glutamine, and added in 100 μL volume to confluent cell monolayers in 24-well cluster plates. Immediately thereafter HSV-1 and HSV-2, diluted in the supplemented PBS medium, were added to the wells in 50 μl volume such that the final concentration of compound was 50 μM and 5 μM and the multiplicity of infection was 0.1. The plates were incubated at 37° C. for 1 hour and then virus-containing inoculum was removed and the wells were washed once in PBS. Compounds, diluted to 50 μM and 5 μM in DMEM supplemented to contain 2% newborn calf serum and 1% each penicillin/streptomycin, were added at 0.5 mL/well. Plates were incubated at 37° C. an additional 23 hr, and then the plates were visually inspected through a phase contrast microscope for cytopathic effect, and for toxic effect. […] The entire contents of each well were collected by scraping. Samples were frozen at −80° C., and then subsequently thawed, sonicated, and infectious virus titer was determined by standard plaque assay on Vero cell monolayers. Because the compounds were dissolved at 10 mM in 100% DMSO, equivalent dilutions of DMSO were added to additional wells as a control for effects of the diluent. Each experiment was repeated once. EC50 values were determined as above except that serial dilutions of the compound to be tested were prepared starting at 50 μM. The inhibitory values were calculated by non-linear curve-fitting in GraphPad Prism.

HSV-1 [2] = conditions: 5 μM or less; cited from earlier work
HSV-2 [3] = assay: Anti-HSV-2 replication assay in Vero cells, titers by plaque assay; format: cell-based, herpes simplex virus 2; conditions: for log reduction at 5 µM / log reduction at 50 µM: Human alphaherpesvirus 2, Vero, 24 h; for log reduction at 5 µM: read-out: HSV-2 Log suppression 5 μM; for log reduction at 50 µM: read-out: HSV-2 Log suppression 50 μM
[4] = Quantitative Vero cell toxicity (MTT); format: cell-based; conditions: African green monkey, Vero cells
Experimental: (§2) Qualitative assessments of cytotoxicity were done visually by inspecting the cells in the primary screening assays. For the quantitative assays, cells were plated in 96-well plates at 1.0×10^4 per well. The next day the compounds were added at 0.78 to 100 μM in a final concentration of 1% (v/v) DMSO, and the cells were incubated for 24 hours under conditions identical to those employed for the viral replication inhibition assays. Mitochondrial toxicity was measured by incubating the cells with 0.25 mg/mL thiazolyl blue tetrazolium bromide (MTT, Sigma Aldrich Chemical Co.), the cultures were incubated for 60 min, metabolites were solubilized in acidic isopropanol, and absorbance was read at 570 nm. CC50 values were calculated by non-linear curve fitting using GraphPad Prism.
Quantitative toxicity measurements were conducted for all compounds that suppressed HSV replication by >2 log10 at 5 μM plus a number of compounds with lesser inhibitory activity for comparison. Toxicity was assessed by […]. Cells were plated in 96-well plates at 1.0×10^4 per well. The next day compound was added in concentrations ranging from 0.78 to 100 μM in a final concentration of 1% (v/v) DMSO. The cells were incubated for 24 h under conditions identical to those employed for the viral replication inhibition assays, and then mitochondrial activity was measured with the MTT assay (Sigma Aldrich) according to the manufacturer's instructions. Percent viability was determined for each compound concentration from the […], and then 50% cytotoxic concentrations (CC50) values were calculated by non-linear curve fitting using GraphPad Prism. Consistent with the subjective assessments of toxicity, all compounds selected for quantitative toxicity assessment had CC50 values≥50 μM under these conditions (Table 1).

HSV = assay: Anti-HSV SAR summary, HSV type not separated; format: cell-based, herpes simplex virus; conditions: grouped by activity at 50, 5 and 0.5 μM
Experimental: as §1
A series of over 20 synthetic αHTs were synthesized and tested to both confirm the initial SAR, and to provide leads for further optimization pursuits (FIG. 5). […] Specifically, biphenyl-containing molecules #118 and 115 inhibit HSV replication by up to 4 log10 at 200 nM. The increased potency over close analogs #111 and 113 confirmed the importance of added lipophilicity.

[5] = Cytotoxicity reported with the HBV assay (Table 4); format: cell-based; conditions: human, hepatoma cells; read-out: CC50 (HBV assay table)
Experimental: as §2

HSV-2 [6] = conditions: 5 μM or less; cited from earlier work
HBV = HBV replication assay in HepDES19 cells; format: cell-based; conditions: Hepatitis B virus
Experimental: HBV replication assay. Inhibition of HBV replication was measured in HepDES19 cells as previously described (Cai, et al., 2014). Cells were seeded into 6-well plates and incubated in DMEM/F12, 10% fetal bovine serum (FBS), 1% penicillin/streptomycin (P/S) with 1 μg/ml tetracycline. Tetracycline was withdrawn after 24 hours. The test compound was applied to duplicate wells 48 hours later in medium containing a final DMSO concentration of 1%, and medium containing the compound was refreshed daily for the following two days. Cells were harvested and non-encapsidated nucleic acids were digested with micrococcal nuclease (New England Biolabs). HBV DNA was purified from capsids using QIAamp Cador Pathogen Mini Kit (Qiagen) with proteinase K incubation overnight at 37° C. TaqMan PCR was performed for 40 cycles at an annealing temperature of 60° C. Primers and probe (IDT Inc.) for the plus-polarity strand were: 5′[…]3′ (SEQ ID NO: 1); 5′[…]3′ (SEQ ID NO: 2); 5′/56-FAM/[…]/ZEN/[…]/3IABkFQ (SEQ ID NO: 3). Primers and probe for the minus-polarity strand were: 5′[…]3′ (SEQ ID NO: 4); 5′[…]3′ (SEQ ID NO: 5); 5′/56-FAM/[…]/ZEN/[…]/3IABkFQ (SEQ ID NO: 6).

[7] = Mouse liver microsome assay; format: in vitro ADME; conditions: 1 μM in mouse liver microsomes; for half-life at 1 μM: read-out: t ½; for ER: extraction ratio
Experimental: Microsomal incubations are run at a final P450 concentration of 0.25 μM. The microsomal mixture is composed of 0.1M potassium phosphate containing 3.3 mM MgCl and 1 μM compound (final concentration). The mixture is prewarmed for 5 min at 37° C. To initiate the reaction a 12 mM stock of NAPDH (1.2 mM, final concentration) is added to the warmed microsomal mixture and aliquots are removed at 0, 5, 10, 20 and 30 min. Samples are quenched with ice cold acetonitrile containing internal standard and either 1.8 mM EDTA or EGTA (final concentration). Samples are vortexed and spun down at 3200 rpm for 5 min. The supernant is transferred to 96-deep well plates and run on LC/MS/MS.

[8] = Human alphaherpesvirus 1, Vero, 24 h
[9] = HepDES19 cells, read-out: EC50 (HBV assay)

## Cc1cc(O)c(=O)c(O)cc1C(=O)c1ccccc1 [Compound 111]
HSV-1 [1]; [8]
  log reduction at 5 µM: 4.28
HSV-1 [2]
  suppression of HSV-1 replication in cell culture, in words: strongly suppress
HSV-2 [3]
  log reduction at 5 µM: 3.21
[4]
  CC50 at 24 h: > 50 µM
HSV
  anti-HSV SAR group, in words: fully inhibitory at 5 μM
[5]
  CC50 at 24 h: 31 µM
HSV-2 [6]
  suppression of HSV-2 replication in cell culture, in words: strongly suppress

## Cc1cc(O)c(=O)c(O)cc1-c1ccccc1 [Compound 113]
HSV-1 [1]; [8]
  log reduction at 5 µM: 2.27
  log reduction at 50 µM: 5.38
HSV-2 [3]
  log reduction at 5 µM: 2.07
  log reduction at 50 µM: 5.61
[4]
  CC50 at 24 h: > 100 µM
HBV; [9]
  EC50: 4.2 µM

## Cc1cc(O)c(=O)c(O)cc1-c1ccc(Br)cc1 [Compound 114]
HSV-1 [1]; [8]
  log reduction at 5 µM: 4.8
  log reduction at 50 µM: 4.75
HSV-2 [3]
  log reduction at 5 µM: 3.92
  log reduction at 50 µM: 5.26
[4]
  CC50 at 24 h: > 100 µM

## Cc1cc(O)c(=O)c(O)cc1-c1cccc(Br)c1 [Compound 119]
HSV-1 [1]; [8]
  log reduction at 5 µM: 5.19
  log reduction at 50 µM: 5.28
HSV-2 [3]
  log reduction at 5 µM: 5.02
  log reduction at 50 µM: 4.88
[4]
  CC50 at 24 h: 72.4 µM
[5]
  CC50 at 24 h: 81 µM
HBV; [9]
  EC50: 6.4 µM

## Cc1cc(O)c(=O)c(O)cc1C(=O)C1CCCCC1 [Compound 120]
HSV-1 [1]; [8]
  log reduction at 5 µM: 4.84
  log reduction at 50 µM: 5.53
HSV-1 [2]
  suppression of HSV-1 replication in cell culture, in words: strongly suppress
HSV-2 [3]
  log reduction at 5 µM: 5.41
  log reduction at 50 µM: 5.07
[4]
  CC50 at 24 h: ~50 µM
HSV
  anti-HSV SAR group, in words: fully inhibitory at 5 μM
[5]
  CC50 at 24 h: 24 µM
HSV-2 [6]
  suppression of HSV-2 replication in cell culture, in words: strongly suppress

## Cc1cc(O)c(=O)c(O)cc1C(=O)C(C)C [Compound 143]
HSV-1 [1]; [8]
  log reduction at 5 µM: 0.25
  log reduction at 50 µM: 5.93
HSV-1 [2]
  suppression of HSV-1 replication in cell culture, in words: strongly suppress
HSV-2 [3]
  log reduction at 5 µM: 0
  log reduction at 50 µM: 4.78
HSV
  anti-HSV SAR group, in words: weakest inhibitors
[5]
  CC50 at 24 h: > 100 µM
HBV; [9]
  EC50: 6 µM
HSV-2 [6]
  suppression of HSV-2 replication in cell culture, in words: strongly suppress

## Cc1cc(O)c(=O)c(O)cc1-c1ccc(C(F)(F)F)cc1 [Compound 145]
HSV-1 [1]; [8]
  log reduction at 5 µM: 3.96
  log reduction at 50 µM: 3.97
HSV-2 [3]
  log reduction at 5 µM: 4.05
  log reduction at 50 µM: 4.33
[4]
  CC50 at 24 h: > 100 µM

## Cc1cc(O)c(=O)c(O)cc1-c1cccc2ccccc12 [Compound 146]
HSV-1 [1]; 5 μM
  HSV-1 inhibition, fold: 478,600 fold
HSV-1 [1]; Human alphaherpesvirus 1, Vero, 24 h, read-out: HSV-1 EC50
  EC50: 0.45 µM
HSV-1 [1]; [8]
  log reduction at 5 µM: 5.68
  log reduction at 50 µM: 6.2
HSV-2 [3]; 5 μM
  HSV-2 inhibition, fold: 457,100 fold
HSV-2 [3]
  log reduction at 5 µM: 5.66
  log reduction at 50 µM: 5.29
[4]
  CC50 at 24 h: > 100 µM
HSV
  anti-HSV SAR group, in words: highly inhibitory at much lower concentrations; also recorded: fully inhibitory at 0.5 μM
[7]
  Non-P450 turn-over: No
  half-life at 1 μM: > 2 h
  ER: <0.1
[5]
  CC50 at 24 h: 12 µM
HBV; [9]
  EC50: 2.3 µM

## Cc1cc(O)c(=O)c(O)cc1-c1ccc2ccccc2c1 [Compound 147]
HSV-1 [1]; [8]
  log reduction at 5 µM: 5.92
  log reduction at 50 µM: 5.81
HSV-2 [3]
  log reduction at 5 µM: 4.33
  log reduction at 50 µM: 4.12
[4]
  CC50 at 24 h: 74.8 µM
[7]
  Non-P450 turn-over: No
  half-life at 1 μM: > 2 h
  ER: <0.1

## O=c1c(O)ccccc1O [Compound 172]
HSV-1 [1]; [8]
  log reduction at 5 µM: 3.31
  log reduction at 50 µM: 4.11
HSV-2 [3]
  log reduction at 5 µM: 1.8
  log reduction at 50 µM: 4.64
[4]
  CC50 at 24 h: > 100 µM
HSV
  anti-HSV SAR group, in words: moderate inhibitors
[5]
  CC50 at 24 h: > 100 µM
HBV; HepDES19, read-out: EC50 (HBV assay)
  EC50: 2.1 µM

## Cc1cc(O)c(=O)c(O)cc1C(=O)CC1CCCCC1 [Compound 173]
HSV-1 [1]; [8]
  log reduction at 5 µM: 5.91
  log reduction at 50 µM: 5.8
HSV-2 [3]
  log reduction at 5 µM: 5.32
  log reduction at 50 µM: 5.94
[4]
  CC50 at 24 h: > 100 µM
HSV
  anti-HSV SAR group, in words: fully inhibitory at 5 μM
[5]
  CC50 at 24 h: 22 µM
HBV; [9]
  EC50: 6.7 µM
